Assays:
Format in all cases: cell-based, mouse
[1] = tested on: HEI-OC1 cells; assay: Mitochondrial membrane potential assay; conditions: treated at compound IC50 value
[2] = tested on: HEI-OC1 cells; assay: MTT cellular viability assay; conditions: HEI-OC1 cell culture, ± standard deviation
[3] = tested on: caspase-3/7 activity in HEI-OC1 cells; assay: Caspase-3/7 luminescence assay; conditions: treated at compound IC50 value
[4] = tested on: HEI-OC1 cells; assay: Reactive oxygen species assay; conditions: 24 hours, treated at compound IC50 value

| Structure (SMILES) | mitochondrial membrane polarization (FL1 to FL3 ratio), % of negative control ([1]; 24 hours) | mitochondrial membrane polarization (FL1 to FL3 ratio), % of negative control ([1]; 48 hours) | IC50 ([2]; 24 Hr treatment) | IC50 ([2]; 48 Hr treatment) | caspase-3/7 activity, % of negative control ([3]; 24 hours) | caspase-3/7 activity, % of negative control ([3]; 48 hours) | ROS yield, % of negative control [4] |
| --- | --- | --- | --- | --- | --- | --- | --- |
| N.N.[Cl][Pt][Cl] [cisplatin] | 109% | 110% | 1660 ± 330 nM | 4520 ± 170 nM | 86% | 352% | 751% |
| [NH3+][Pt-2]([NH3+])([Cl])[n+]1cc2ccccc2c2ccccc21 (stereo not drawn) [phenanthriplatin, cis-diammine (phenanthridine) chloroplatinum(II)] | 98% | 88% | 1640 ± 190 nM | 2310 ± 290 nM | 83% | 89% | 741% |
| [NH3+][Pt-2]([NH3+])([Cl])[n+]1ccccc1 (stereo not drawn) [pyriplatin, cis-diammine (pyridine) chloroplatinum(II)] | 101% | 90% | 11100 ± 280 nM | 2520 ± 110 nM | 82% | 101% | 618% |
